The values below come from patent publication US10214510B2, “N-cycloalkyl-N-(biheterocyclylethylene)-(thio)carboxamide derivatives” (Bayer CropScience Aktiengesellschaft, priority 2015, dated 2019).

The structures appear in SMILES notation.

One data set concerns Alternaria brassicae. Kind of data set: In vivo preventive test on Alternaria brassicae (leaf spot on radish). The settings on record: for protection: dose of 100 and 500 ppm of active ingredient. The protocol: Example A: In Vivo Preventive Test on Alternaria Brassicae (Leaf Spot on Radish) Solvent: 5% by volume of Dimethyl sulfoxide • 10% by volume of Acetone Emulsifier: 1 μL of Tween® 80 per mg of active ingredient The active ingredients are made soluble and homogenized in a mixture of Dimethyl sulfoxide/Acetone//Tween® 80 and then diluted in water to the desired concentration. The young plants of radish are treated by spraying the active ingredient prepared as described above. Control plants are treated only with an aqueous solution of Acetone/Dimethyl sulfoxide/Tween® 80. After 24 hours, the plants are contaminated by spraying the leaves with an aqueous suspension of Alternaria brassicae spores. The contaminated radish plants are incubated for 6 days at 20° C. and at 100% relative humidity. The test is evaluated 6 days after the inoculation. 0% means an efficacy which corresponds to that of the control plants while an efficacy of 100% means that no disease is observed.

The next data set concerns Puccinia recondita. The data set is described as follows: In vivo preventive test on Puccinia recondita (brown rust on wheat). As to the method:
(§1) Example B: In Vivo Preventive Test on Puccinia Recondita (Brown Rust on Wheat) Solvent: 5% by volume of Dimethyl sulfoxide • 10% by volume of Acetone Emulsifier: 1 μL of Tween® 80 per mg of active ingredient The active ingredients are made soluble and homogenized in a mixture of Dimethyl sulfoxide/Acetone//Tween® 80 and then diluted in water to the desired concentration. The young plants of wheat are treated by spraying the active ingredient prepared as described above. Control plants are treated only with an aqueous solution of Acetone/Dimethyl sulfoxide/Tween® 80. After 24 hours, the plants are contaminated by spraying the leaves with an aqueous suspension of Puccinia recondita spores. The contaminated wheat plants are incubated for 24 hours at 20° C. and at 100% relative humidity and then for 10 days at 20° C. and at 70-80% relative humidity. The test is evaluated 11 days after the inoculation. 0% means an efficacy which corresponds to that of the control plants while an efficacy of 100% means that no disease is observed.

Another data set relates to Uromyces appendiculatus. The data set is described as follows: In vivo preventive test on Uromyces appendiculatus (bean rust). The following applies: for Efficacy: Table F2, dose 500 ppm; for protection: dose of 500 ppm of active ingredient. The protocol: as §1, with “F:” for “B:”, “Uromyces Appendiculatus (Bean Rust)” for “Puccinia Recondita (Brown Rust on Wheat)”, “bean” for “wheat”, “Uromyces appendiculatus” for “Puccinia recondita”

The nature of data set [1]: log P by HPLC on reversed-phase column (C 18), EEC Directive 79/831 Annex V.A8. The format is physicochemical. The following applies: for logP: HPLC, C 18, 40° C., 0.1% aqueous formic acid and acetonitrile. The protocol:
In table 1, the log P values were determined in accordance with EEC Directive 79/831 Annex V.A8 by HPLC (High Performance Liquid Chromatography) on a reversed-phase column (C 18), using the method described below: Temperature: 40° C.; Mobile phases: 0.1% aqueous formic acid and acetonitrile; linear gradient from 10% acetonitrile to 90% acetonitrile. Calibration was carried out using unbranched alkan-2-ones (comprising 3 to 16 carbon atoms) with known log P values (determination of the log P values by the retention times using linear interpolation between two successive alkanones). lambda-max-values were determined using UV-spectra from 200 nm to 400 nm and the peak values of the chromatographic signals.

The mark [2] stands for this setting: dose of 500 ppm of active ingredient.
Setting [3] is: dose of 100 and 500 ppm of active ingredient.

Take `CC(Cc1nc2ccc(C(F)(F)F)cn2c1-c1cccnc1)N(C(=O)c1c(C(F)F)nn(C)c1F)C1CC1` (stereo not drawn) [CMP1, N-cyclopropyl-3-(difluoromethyl)-5-fluoro-1-methyl-N-{1-[3-(pyridin-3-yl)-6-(trifluoromethyl)imidazo[1,2-a]pyridin-2-yl]propan-2-yl}-1H-pyrazole-4-carboxamide, reference compound]: the Efficacy in the data set with Alternaria brassicae (Table A2, dose 100 ppm) came out at 0%; with Alternaria brassicae (Table A2, dose 500 ppm), 43%; in the data set on Puccinia recondita (Table B2, dose 500 ppm) it was 0%. In addition, the figures for the protection result in the data set on Alternaria brassicae and in the data set with Puccinia recondita (setting [2]) were “less than 50%” and “no protection”, respectively.
Consider `CC(Cc1ncc(C(F)(F)F)cc1-c1cccnc1)N(C(=O)c1c(C(F)F)nn(C)c1F)C1CC1` (stereo not drawn) [CMP2, N-cyclopropyl-3-(difluoromethyl)-5-fluoro-1-methyl-N-{1-[5-(trifluoromethyl)-3,3′-bipyridin-2-yl]propan-2-yl}-1H-pyrazole-4-carboxamide, reference compound], for which the Efficacy was 38% in the data set with Puccinia recondita (Table B3, dose 100 ppm); 69% in the data set on Puccinia recondita (Table B3, dose 500 ppm); 0% in the data set with Uromyces appendiculatus. Also, the figures for the protection result in the data set on Puccinia recondita (setting [3]) and in the data set on Uromyces appendiculatus were “less than 70%” and “no protection”, respectively.
In data set [1], `CC(Cc1ncc(C(F)(F)F)cc1-c1cnc2ccccc2c1)N(C(=O)c1c(C(F)F)nn(C)c1F)C1CC1` (stereo not drawn) [I.01] displayed a logP of 3.53.
On to `CC(Cc1ncc(C(F)(F)F)cc1-c1csc2ccccc12)N(C(=O)c1c(C(F)F)nn(C)c1F)C1CC1` (stereo not drawn) [I.02], for which the log partition coefficient (logP) in data set [1] is 4.72.
Turning to `CC(Cc1ncc(C(F)(F)F)cc1-c1ccnc2cc(Cl)ccc12)N(C(=O)c1c(C(F)F)nn(C)c1F)C1CC1` (stereo not drawn) [I.03], the logP in data set [1] turned out to be 4.20.
Still for that read-out and setting: as for `CC(Cc1ncc(C(F)(F)F)cc1-c1coc2ccccc12)N(C(=O)c1c(C(F)F)nn(C)c1F)C1CC1` (stereo not drawn) [I.04], the figure is 4.46.
On to `CC(Cc1ncc(C(F)(F)F)cc1-c1ccoc1)N(C(=O)c1c(C(F)F)nn(C)c1F)C1CC1` (stereo not drawn) [I.05], for which, in data set [1], the log partition coefficient (logP) worked out at 3.76. The Efficacy in the data set with Puccinia recondita (Table B3, dose 100 ppm) came to 93%; in the data set on Puccinia recondita (Table B3, dose 500 ppm), 100%; in the data set with Uromyces appendiculatus, 100%. Moreover, the protection entry with Puccinia recondita (setting [3]) is “at least 90%”; in the data set on Uromyces appendiculatus it was “total protection”.
With `CC(Cc1ncc(C(F)(F)F)cc1-c1ccsc1)N(C(=O)c1c(C(F)F)nn(C)c1F)C1CC1` (stereo not drawn) [I.06, N-cyclopropyl-3-(difluoromethyl)-5-fluoro-1-methyl-N-{1-[3-(3-thienyl)-5-(trifluoro-methyl)-pyridin-2-yl]propan-2-yl}-1H-pyrazole-4-carboxamide], the chromatographic logP in data set [1] (reversed-phase HPLC column (C 18), preparation example 1) was determined as 4.03.
In data set [1], `Cc1cscc1-c1cc(C(F)(F)F)cnc1CC(C)N(C(=O)c1c(C(F)F)nn(C)c1F)C1CC1` (stereo not drawn) [I.07] gave a logP of 4.37.
Same read-out and setting: as for `CC(Cc1ncc(C(F)(F)F)cc1-c1ccco1)N(C(=O)c1cn(C)nc1C(F)F)C1CC1` (stereo not drawn) [I.08], the figure is 3.55.
`CC(Cc1ncc(C(F)(F)F)cc1-c1ccsc1)N(C(=O)c1cn(C)nc1C(F)F)C1CC1` (stereo not drawn) [I.09] displayed a logP in data set [1] of 3.67.
As to `Cc1cscc1-c1cc(C(F)(F)F)cnc1CC(C)N(C(=O)c1cn(C)nc1C(F)F)C1CC1` (stereo not drawn) [I.10], the logP in data set [1] was determined as 3.99.
Consider `CC(Cc1ncc(C(F)(F)F)cc1-c1coc2ccccc12)N(C(=O)c1cn(C)nc1C(F)F)C1CC1` (stereo not drawn) [I.11], for which, in data set [1], the logP is 4.11.
With `CC(Cc1ncc(C(F)(F)F)cc1-c1ccnc2cc(Cl)ccc12)N(C(=O)c1cn(C)nc1C(F)F)C1CC1` (stereo not drawn) [I.12], the logP in data set [1] is listed as 3.78.
The same measure, in the same setting: as for `CC(Cc1ncc(C(F)(F)F)cc1-c1cnc2ccccc2c1)N(C(=S)c1c(C(F)F)nn(C)c1F)C1CC1` (stereo not drawn) [I.13], the figure is 3.99.
On the same count and under the same terms, as for `CC(Cc1ncc(C(F)(F)F)cc1-c1csc2ccccc12)N(C(=S)c1c(C(F)F)nn(C)c1F)C1CC1` (stereo not drawn) [I.14], the figure is 5.32.
On the same count and under the same terms, as for `CC(Cc1nc2ccc(C(F)(F)F)cn2c1-c1ccsc1)N(C(=O)c1c(C(F)F)nn(C)c1F)C1CC1` (stereo not drawn) [I.15], the figure is 2.8.
Molecule `CC(Cc1nc2ccc(C(F)(F)F)cn2c1-c1ccoc1)N(C(=O)c1c(C(F)F)nn(C)c1F)C1CC1` (stereo not drawn) [I.16] registered a lipophilicity (logP) in data set [1] of 2.63. Moreover, the Efficacy is 86% in the data set on Alternaria brassicae (Table A2, dose 100 ppm); 86% in the data set with Alternaria brassicae (Table A2, dose 500 ppm); 78% with Puccinia recondita (Table B2, dose 500 ppm). For the same molecule, the protection result is reported as “at least 80%” in the data set with Alternaria brassicae and “at least 70%” in the data set on Puccinia recondita (setting [2]).
For `CC(Cc1nc2ccc(C(F)(F)F)cn2c1-c1csc2ccccc12)N(C(=O)c1c(C(F)F)nn(C)c1F)C1CC1` (stereo not drawn) [I.17], in data set [1], the logP was determined as 3.57.
For the molecule `CC(Cc1nc2ccc(C(F)(F)F)cn2c1-c1cccc2cccnc12)N(C(=O)c1c(C(F)F)nn(C)c1F)C1CC1` (stereo not drawn) [I.18], the logP in data set [1] worked out at 2.44.
Still for that read-out and setting: as for `COc1ccnc(-c2c(CC(C)N(C(=O)c3c(C(F)F)nn(C)c3F)C3CC3)nc3ccc(C(F)(F)F)cn23)n1` (stereo not drawn) [I.19], the figure is 2.44; as for `CC(Cc1nc2ccc(C(F)(F)F)cn2c1-c1ccsc1)N(C(=O)c1nn(C)nc1C(F)F)C1CC1` (stereo not drawn) [I.20], 3.08; as for `CC(Cc1ncc(C(F)(F)F)cc1CN1CCCCC1)N(C(=O)c1c(C(F)F)nn(C)c1F)C1CC1` (stereo not drawn) [I.21], 1.82.
Take `CC(Cc1ncc(C(F)(F)F)cc1CN1CCCCC1)N(C(=O)c1cn(C)nc1C(F)F)C1CC1` (stereo not drawn) [I.22]: in data set [1], the logP is 1.67.
Same read-out and setting: as for `CC(Cc1nc2ccc(C(F)(F)F)cn2c1-c1ccsc1)N(C(=O)c1ccsc1Cl)C1CC1` (stereo not drawn) [I.23], the figure is 4.44; as for `Cc1cc(C(=O)N(C(C)Cc2nc3ccc(C(F)(F)F)cn3c2-c2ccsc2)C2CC2)c(C)o1` (stereo not drawn) [I.24], 3.35.
In data set [1], `Cc1nc(C(F)F)c(C(=O)N(C(C)Cc2nc3ccc(C(F)(F)F)cn3c2-c2ccsc2)C2CC2)s1` (stereo not drawn) [I.25] came in with a logP of 3.39.
